In patent publication US20100261710A1, “HDAC Inhibitors” (ARQULE, INC., priority 2007, published 2010):
Like-named read-outs stand apart in the source and are kept apart here.

Tests used:
[1] = system: HDACs (nuclear HeLa extract); assay: pan-HDAC fluorescent biochemical assay with nuclear HeLa extract; details: HDAC peptide substrate, 60 min at 37° C.
Protocol: Substrate was synthesized in house. Stocks were prepared in DMSO (10 mM).
Compound working solution: Compounds dissolved in assay buffer at 4× Screening concentration. Activator solution: Trypsin (10 mg/mL) diluted 1:1600 in Assay Buffer containing 4 μM TSA.
Total reaction Volume: 40 μL
Reaction was allowed to run for 60 minutes at 37° C.
2. Combine in a white ½ area well plate: 10 μl of 4× compound (or buffer), 15 μl of substrate and 15 μl of HeLa extract. Mix well
3. Incubate at 37° C. for 60 min.
4. Prepare Activator solution. Dilute Trypsin 1:1600 in Assay Buffer+4μM TSA. 20 μl is needed per assay point.
5. Add 20 μl of prepared activator solution and mix thoroughly.
The hydroxamic-acid based compounds of the present invention were tested in the biochemical assay for their pan-HDAC inhibitory activity.

HDAC3 = molecular target: T1, HDAC3 (Homo sapiens, UniProt O15379); assay: HDAC isoform assay, HDAC3; format: biochemical
T1 construct: purchased BioMol
Protocol: The assay measures the ability of a small molecule to inhibit deacetylation of the substrate. Activator reagent recognizes the substrate only if the lysine has been deacetylated.
This homogeneous assay in performed in the same well without washing steps. The HDAC source, nuclear HeLa extract, is incubated with substrate in the presence of an inhibitor compound. At the end of the reaction time, activator solution, containing Trypsin and TSA, is added to stop the deacetylation reaction, and cleave the amino-coumarin from the deacetylated substrate. The plate is then read on either a Perkin Elmer Victor or Envision system using Umbilliferone filter set. […] The signal is directly proportional to the activity of HDACs and compound inhibition of HDAC is monitored by a decrease in signal.

HDAC9 = molecular target: T2, HDAC9 (Homo sapiens, UniProt Q9UKV0); assay: HDAC isoform assay, HDAC9; format: biochemical
T2 construct: purchased BioMol

Hut78 cells = assay: MTS cell viability assay, Hut78; format: cell-based; details: Homo sapiens; Hut78, 72 hr; read-out: Hut78, IG50, MTS
Protocol: The MTS cell viability assay was used to determine the potency of proliferation inhibitor with. MTS measures mitochondrial dehydrogenase activity and serves as surrogate readout for the number of viable cells.
For MTS assay, cells were plated in 96-well plates at 2000 cells per well and incubated in the presence of compounds for 72 hr. MTS was added to each well as instructed by manufacture (Promega) and plates were incubated for 4 h at 37° C. The absorbance of each well was measured at 490 nm using a microplate reader.

HDAC2 = molecular target: T3, HDAC2 (Homo sapiens, UniProt Q92769); assay: HDAC isoform assay, HDAC2; format: biochemical; details: substrate KI-177; read-out: HDAC2, IC50, ELISA (KI-177)
T3 construct: purchased BioMol

HDAC6 = molecular target: T4, HDAC6 (Homo sapiens, UniProt Q9UBN7); assay: HDAC isoform assay, HDAC6
T4 sequence (Q9UBN7 1-1215): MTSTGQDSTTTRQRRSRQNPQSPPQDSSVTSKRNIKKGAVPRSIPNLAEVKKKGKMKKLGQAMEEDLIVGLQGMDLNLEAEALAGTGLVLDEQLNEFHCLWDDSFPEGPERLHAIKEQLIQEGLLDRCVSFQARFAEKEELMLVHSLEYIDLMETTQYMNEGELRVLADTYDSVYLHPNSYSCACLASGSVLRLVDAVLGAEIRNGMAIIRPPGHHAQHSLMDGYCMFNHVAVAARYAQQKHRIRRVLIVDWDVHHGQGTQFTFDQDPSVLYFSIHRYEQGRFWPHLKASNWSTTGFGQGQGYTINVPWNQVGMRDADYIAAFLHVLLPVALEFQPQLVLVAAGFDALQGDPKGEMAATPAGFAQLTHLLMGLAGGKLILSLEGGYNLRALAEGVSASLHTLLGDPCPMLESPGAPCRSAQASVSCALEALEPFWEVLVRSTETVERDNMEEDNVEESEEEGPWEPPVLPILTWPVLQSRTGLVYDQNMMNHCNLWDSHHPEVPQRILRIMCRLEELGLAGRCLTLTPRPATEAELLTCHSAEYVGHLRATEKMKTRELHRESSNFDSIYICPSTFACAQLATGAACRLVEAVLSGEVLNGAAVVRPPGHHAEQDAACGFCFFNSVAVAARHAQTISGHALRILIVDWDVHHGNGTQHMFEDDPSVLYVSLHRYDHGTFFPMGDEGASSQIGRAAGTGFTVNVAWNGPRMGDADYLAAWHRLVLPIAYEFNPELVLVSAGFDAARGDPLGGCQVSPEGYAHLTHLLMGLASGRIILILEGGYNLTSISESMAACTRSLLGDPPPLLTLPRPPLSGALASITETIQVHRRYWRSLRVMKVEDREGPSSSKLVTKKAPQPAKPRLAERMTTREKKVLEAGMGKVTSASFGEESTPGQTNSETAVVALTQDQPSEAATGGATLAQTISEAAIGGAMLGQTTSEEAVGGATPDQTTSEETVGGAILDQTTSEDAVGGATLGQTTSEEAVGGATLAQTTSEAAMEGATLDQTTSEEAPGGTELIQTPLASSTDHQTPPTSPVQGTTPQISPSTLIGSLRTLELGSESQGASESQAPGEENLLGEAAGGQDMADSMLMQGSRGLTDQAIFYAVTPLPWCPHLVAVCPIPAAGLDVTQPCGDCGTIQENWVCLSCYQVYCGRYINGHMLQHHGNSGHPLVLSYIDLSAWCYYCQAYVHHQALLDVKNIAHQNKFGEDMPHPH

HDAC4 = molecular target: T5, HDAC4 (Homo sapiens, UniProt P56524); assay: HDAC isoform assay, HDAC4; format: biochemical; details: substrate KI-177; read-out: HDAC4, IC50, ELISA (KI-177)
T5 construct: purchased BioMol

[2] = substrate KI-177, read-out: HDAC3, IC50, ELISA (KI-177)

T3 sequence (Q92769 whole entry, canonical isoform): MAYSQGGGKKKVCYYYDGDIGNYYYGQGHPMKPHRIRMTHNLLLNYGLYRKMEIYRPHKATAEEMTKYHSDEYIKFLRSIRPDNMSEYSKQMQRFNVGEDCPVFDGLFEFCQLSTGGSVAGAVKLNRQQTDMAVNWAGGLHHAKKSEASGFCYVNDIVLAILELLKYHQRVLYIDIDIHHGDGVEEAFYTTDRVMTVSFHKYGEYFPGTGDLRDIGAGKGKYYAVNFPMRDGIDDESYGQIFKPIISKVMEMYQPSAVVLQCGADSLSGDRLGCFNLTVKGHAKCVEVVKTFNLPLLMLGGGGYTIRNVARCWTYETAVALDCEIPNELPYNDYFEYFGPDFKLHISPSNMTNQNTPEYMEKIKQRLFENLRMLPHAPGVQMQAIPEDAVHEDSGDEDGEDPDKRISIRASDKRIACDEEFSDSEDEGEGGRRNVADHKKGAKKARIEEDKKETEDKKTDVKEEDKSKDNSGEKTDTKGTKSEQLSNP
T2 sequence (Q9UKV0 whole entry, canonical isoform): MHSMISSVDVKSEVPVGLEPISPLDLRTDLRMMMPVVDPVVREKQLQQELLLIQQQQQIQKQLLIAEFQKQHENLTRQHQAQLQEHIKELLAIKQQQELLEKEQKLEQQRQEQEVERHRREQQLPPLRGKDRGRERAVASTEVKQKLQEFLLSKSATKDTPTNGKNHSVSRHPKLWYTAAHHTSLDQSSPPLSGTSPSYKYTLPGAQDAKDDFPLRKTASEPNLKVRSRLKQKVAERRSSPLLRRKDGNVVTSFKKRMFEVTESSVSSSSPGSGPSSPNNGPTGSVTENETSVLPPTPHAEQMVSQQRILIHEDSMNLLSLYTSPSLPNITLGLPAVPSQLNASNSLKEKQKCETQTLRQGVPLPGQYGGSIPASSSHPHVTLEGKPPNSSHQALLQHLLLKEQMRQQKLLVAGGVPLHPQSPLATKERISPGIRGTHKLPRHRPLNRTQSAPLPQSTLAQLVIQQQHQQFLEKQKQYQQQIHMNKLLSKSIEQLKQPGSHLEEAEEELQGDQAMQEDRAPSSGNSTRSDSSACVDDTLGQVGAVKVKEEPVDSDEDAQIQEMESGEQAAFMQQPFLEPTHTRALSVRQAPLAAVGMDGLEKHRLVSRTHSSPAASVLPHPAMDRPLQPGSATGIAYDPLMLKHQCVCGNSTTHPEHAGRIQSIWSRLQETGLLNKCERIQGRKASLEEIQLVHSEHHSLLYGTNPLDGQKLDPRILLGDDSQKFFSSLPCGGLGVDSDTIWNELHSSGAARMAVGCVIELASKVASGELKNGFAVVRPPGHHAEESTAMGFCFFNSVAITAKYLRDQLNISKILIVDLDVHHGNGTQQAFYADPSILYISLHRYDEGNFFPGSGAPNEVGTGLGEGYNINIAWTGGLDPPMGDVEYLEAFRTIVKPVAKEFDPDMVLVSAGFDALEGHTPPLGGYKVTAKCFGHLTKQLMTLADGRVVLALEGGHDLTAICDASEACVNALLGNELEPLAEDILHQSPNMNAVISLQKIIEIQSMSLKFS
T1 sequence (O15379 whole entry, canonical isoform): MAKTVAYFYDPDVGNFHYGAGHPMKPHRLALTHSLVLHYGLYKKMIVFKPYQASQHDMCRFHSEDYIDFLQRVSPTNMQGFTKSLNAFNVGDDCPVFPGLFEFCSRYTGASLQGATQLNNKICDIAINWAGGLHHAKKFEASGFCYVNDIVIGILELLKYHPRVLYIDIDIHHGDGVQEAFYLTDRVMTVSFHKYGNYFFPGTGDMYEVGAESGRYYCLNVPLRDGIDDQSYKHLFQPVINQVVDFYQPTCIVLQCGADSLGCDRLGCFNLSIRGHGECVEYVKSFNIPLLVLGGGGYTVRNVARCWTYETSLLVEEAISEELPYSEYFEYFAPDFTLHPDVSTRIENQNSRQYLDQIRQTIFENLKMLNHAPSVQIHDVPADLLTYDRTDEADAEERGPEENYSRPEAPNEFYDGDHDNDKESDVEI
T1 sequence (O75376 395-489 partner limits assumed): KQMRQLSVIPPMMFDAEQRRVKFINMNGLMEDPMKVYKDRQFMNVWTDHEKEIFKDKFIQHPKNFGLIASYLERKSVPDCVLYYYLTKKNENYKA
T5 sequence (P56524 whole entry, canonical isoform): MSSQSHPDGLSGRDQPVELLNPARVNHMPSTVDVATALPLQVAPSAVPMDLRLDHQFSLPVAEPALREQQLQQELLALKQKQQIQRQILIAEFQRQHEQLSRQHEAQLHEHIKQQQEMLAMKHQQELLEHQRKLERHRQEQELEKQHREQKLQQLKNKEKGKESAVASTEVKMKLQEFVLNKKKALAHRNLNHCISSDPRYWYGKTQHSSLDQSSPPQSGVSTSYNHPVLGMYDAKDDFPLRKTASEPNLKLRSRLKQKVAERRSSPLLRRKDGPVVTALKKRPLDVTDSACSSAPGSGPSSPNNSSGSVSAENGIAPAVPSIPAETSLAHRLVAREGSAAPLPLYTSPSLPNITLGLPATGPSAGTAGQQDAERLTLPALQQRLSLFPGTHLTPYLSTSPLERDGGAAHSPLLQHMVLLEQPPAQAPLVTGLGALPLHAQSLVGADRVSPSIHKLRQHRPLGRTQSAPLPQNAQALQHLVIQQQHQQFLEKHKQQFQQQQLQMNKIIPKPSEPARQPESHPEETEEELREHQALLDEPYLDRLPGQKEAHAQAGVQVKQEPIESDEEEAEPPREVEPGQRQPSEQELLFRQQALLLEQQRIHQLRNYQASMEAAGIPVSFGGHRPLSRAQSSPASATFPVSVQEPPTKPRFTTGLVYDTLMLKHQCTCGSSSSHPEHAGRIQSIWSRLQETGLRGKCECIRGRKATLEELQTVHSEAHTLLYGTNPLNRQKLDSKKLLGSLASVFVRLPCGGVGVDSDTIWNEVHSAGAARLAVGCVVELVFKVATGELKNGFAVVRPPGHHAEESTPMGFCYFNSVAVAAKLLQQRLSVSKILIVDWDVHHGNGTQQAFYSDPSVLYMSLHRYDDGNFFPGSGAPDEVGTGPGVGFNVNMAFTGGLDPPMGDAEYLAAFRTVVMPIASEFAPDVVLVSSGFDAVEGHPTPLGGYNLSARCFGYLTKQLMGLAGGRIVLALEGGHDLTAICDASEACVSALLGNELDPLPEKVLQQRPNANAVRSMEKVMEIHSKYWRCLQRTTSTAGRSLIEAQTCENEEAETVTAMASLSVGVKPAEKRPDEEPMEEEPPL

SMILES	IC50 [1]	IC50 (HDAC3)	IC50 (HDAC9)	IC50 (Hut78 cells)	IC50 (HDAC2)	IC50 (HDAC6)	melting point	IC50 (HDAC4)	IC50 (HDAC3; [2])
O=C(CCCCCNC(=O)c1cn2c3c(cccc13)CCC2)NO [compound 2, N-[6-(hydroxyamino)-6-oxohexyl]-5,6-dihydro-4H-pyrrolo[3,2,1-ij]quinoline-1-carboxamide]	57.4 nM	13.6 nM	106 nM	2920 nM	1940 nM	67.2 nM			
O=C(CCCCCCNC(=O)c1cn2c3c(cccc13)CCC2)NO [compound 3, N-[7-(hydroxyamino)-7-oxoheptyl]-5,6-dihydro-4H-pyrrolo[3,2,1-ij]quinoline-1-carboxamide]	69.8 nM	45.7 nM	413 nM	240 nM	2460 nM	158 nM	205 to 206 °C	40.5 nM	
O=C(CCCCCNC(=O)C(=O)c1cn2c3c(cccc13)CCC2)NO [compound 8, 6-{[5,6-dihydro-4H-pyrrolo[3,2,1-ij]quinolin-1-yl(oxo)acetyl]amino}-N-hydroxyhexanamide]	115 nM	20.4 nM			1800 nM	77.6 nM	150 to 155 °C		
O=C(CCCNC(=O)C(=O)c1cn2c3c(cccc13)CCC2)NO [compound 9, 4-{[5,6-dihydro-4H-pyrrolo[3,2,1-ij]quinolin-1-yl(oxo)acetyl]amino}-N-hydroxybutanamide]	602 nM	630 nM		903 nM	3000 nM	692 nM	95 to 97 °C		
O=C(CCCCCCNC(=O)Nc1cn2c3c(cccc13)CCC2)NO [compound 11, 7-[(5,6-dihydro-4H-pyrrolo[3,2,1-ij]quinolin-1-ylcarbamoyl)amino]-N-hydroxyheptanamide]	27.9 nM		88.7 nM	181 nM	1340 nM	66.4 nM	185 to 187 °C	40.4 nM	23 nM
O=C(CCCCCCNC(=O)C(=O)c1cn2c3c(cccc13)CCC2)NO [compound 12, 7-{[5,6-dihydro-4H-pyrrolo[3,2,1-ij]quinolin-1-yl(oxo)acetyl]amino}-N-hydroxyheptanamide]	126 nM		1060 nM	174 nM	2320 nM	134 nM	158 to 159 °C	298 nM	87.6 nM
O=C(CCCCCNC(=O)Nc1cn2c3c(cccc13)CCC2)NO [compound 13, 6-[(5,6-dihydro-4H-pyrrolo[3,2,1-ij]quinolin-1-ylcarbamoyl)amino]-N-hydroxyhexanamide]	32.2 nM		97.2 nM	1270 nM	1780 nM	63.2 nM	161 to 163 °C		20.5 nM
